Legend:
[1] = target: human TRPA1 (Homo sapiens (Human), UniProt O75762); assay: FLIPR assay of inhibitory activity on human TRPA1 (calcium ion flux fluorescence); assay type: cell-based; details: HEK293 cells stably expressing human TRPA1
How it was run: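 Tetracycline-induced (0.1 μg/ml) HEK293 cells stably expressing human TRPA1, loaded with 5 μM Fluo-4 AM for 1 h at 37° C. Compounds added in 1:5 dilutions from 30 μM (9 points, duplicate), then 3 mM CaCl2 after 10 min; fluorescence peak at 538 nm gave IC50.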

[2] = target: human TRPC6 (Homo sapiens (Human), UniProt Q9Y210); assay: Inhibitory activity on human TRPC6 by conventional patch clamp assay; assay type: cell-based; details: HEK293 human TRPC6, read-out: TRPC6 Inhibition rate (5 μM)
Description: 3. Inhibitory Activity on Human TRPC6 by Conventional Patch Clamp Assay
In order to test the selectivity of the compounds in TRPA1 inhibition, a conventional patch clamp method was used to further measure the inhibitory activity of compounds on TRPC6. The principle and procedures of the conventional patch clamp assay could be found in the literature report of Ambrus et al [Ambrus et al. J Cell and Mol Med 2015, 19 (12):2771-9].
Evaluation of TRPC6 inhibitory activity of compounds was conducted using the HEK293 recombinant cell strain (Creative Biogene, NY) stably expressing human TRPC6. Cells were cultured in a DMEM/F12 (3:1, Thermo Fisher Scientific) medium (containing 5% calf serum, 2 mM glutamine and 20 mM HEPES) in an incubator at 37° C. and air humidity containing 5% CO2.
During the experiment, the adherent cells were placed in a recording room under the inverted microscope. All experiments were performed at room temperature. Each cell itself was used as a control thereof.
Test compounds at a final concentration were all prepared on the testing day and then dissolved in the extracellular fluid. The extracellular fluid was (mM): NaCl, 137; KCl, 4; CaCl2, 1.8; MgCl2, 1; HEPES, 10; glucose 10; pH 7.4 (NaOH titration). Low-Ca extracellular fluid was (mM): NaCl, 138.3; KCl, 4; CaCl2, 0.5; MgCl2, 1; HEPES, 10; glucose 10; pH 7.4 (NaOH titration). […]

Chain of human TRPA1 (O75762 whole entry): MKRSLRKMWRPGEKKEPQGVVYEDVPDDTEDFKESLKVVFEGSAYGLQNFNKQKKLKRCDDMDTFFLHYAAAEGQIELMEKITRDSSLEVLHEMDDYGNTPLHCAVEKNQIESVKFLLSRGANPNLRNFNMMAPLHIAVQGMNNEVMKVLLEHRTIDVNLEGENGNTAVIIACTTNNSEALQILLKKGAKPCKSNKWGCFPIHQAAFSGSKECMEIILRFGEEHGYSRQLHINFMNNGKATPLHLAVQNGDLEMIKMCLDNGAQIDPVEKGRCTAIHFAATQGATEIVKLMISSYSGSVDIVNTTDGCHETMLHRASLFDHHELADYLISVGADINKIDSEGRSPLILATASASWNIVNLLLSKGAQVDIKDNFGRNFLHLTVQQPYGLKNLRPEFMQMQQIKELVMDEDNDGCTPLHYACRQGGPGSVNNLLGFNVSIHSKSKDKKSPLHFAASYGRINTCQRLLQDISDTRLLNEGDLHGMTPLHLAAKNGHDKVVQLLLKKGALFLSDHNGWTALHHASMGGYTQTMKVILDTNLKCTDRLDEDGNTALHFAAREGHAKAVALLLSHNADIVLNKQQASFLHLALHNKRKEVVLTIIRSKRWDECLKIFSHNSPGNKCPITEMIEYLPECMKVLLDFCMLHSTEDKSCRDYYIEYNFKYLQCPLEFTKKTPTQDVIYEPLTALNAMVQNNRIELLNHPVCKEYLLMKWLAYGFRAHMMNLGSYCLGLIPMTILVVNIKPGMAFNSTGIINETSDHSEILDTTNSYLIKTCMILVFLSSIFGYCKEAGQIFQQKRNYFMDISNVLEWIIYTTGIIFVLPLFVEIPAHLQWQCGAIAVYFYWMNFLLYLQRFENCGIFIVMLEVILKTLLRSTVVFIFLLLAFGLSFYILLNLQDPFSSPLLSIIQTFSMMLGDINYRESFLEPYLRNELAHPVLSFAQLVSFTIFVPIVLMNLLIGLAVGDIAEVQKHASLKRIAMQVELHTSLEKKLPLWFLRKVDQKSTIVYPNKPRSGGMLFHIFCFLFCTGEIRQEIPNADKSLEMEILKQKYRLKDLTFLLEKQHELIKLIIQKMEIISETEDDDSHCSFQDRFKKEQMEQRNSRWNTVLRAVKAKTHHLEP
Chain of human TRPC6 (Q9Y210 whole entry): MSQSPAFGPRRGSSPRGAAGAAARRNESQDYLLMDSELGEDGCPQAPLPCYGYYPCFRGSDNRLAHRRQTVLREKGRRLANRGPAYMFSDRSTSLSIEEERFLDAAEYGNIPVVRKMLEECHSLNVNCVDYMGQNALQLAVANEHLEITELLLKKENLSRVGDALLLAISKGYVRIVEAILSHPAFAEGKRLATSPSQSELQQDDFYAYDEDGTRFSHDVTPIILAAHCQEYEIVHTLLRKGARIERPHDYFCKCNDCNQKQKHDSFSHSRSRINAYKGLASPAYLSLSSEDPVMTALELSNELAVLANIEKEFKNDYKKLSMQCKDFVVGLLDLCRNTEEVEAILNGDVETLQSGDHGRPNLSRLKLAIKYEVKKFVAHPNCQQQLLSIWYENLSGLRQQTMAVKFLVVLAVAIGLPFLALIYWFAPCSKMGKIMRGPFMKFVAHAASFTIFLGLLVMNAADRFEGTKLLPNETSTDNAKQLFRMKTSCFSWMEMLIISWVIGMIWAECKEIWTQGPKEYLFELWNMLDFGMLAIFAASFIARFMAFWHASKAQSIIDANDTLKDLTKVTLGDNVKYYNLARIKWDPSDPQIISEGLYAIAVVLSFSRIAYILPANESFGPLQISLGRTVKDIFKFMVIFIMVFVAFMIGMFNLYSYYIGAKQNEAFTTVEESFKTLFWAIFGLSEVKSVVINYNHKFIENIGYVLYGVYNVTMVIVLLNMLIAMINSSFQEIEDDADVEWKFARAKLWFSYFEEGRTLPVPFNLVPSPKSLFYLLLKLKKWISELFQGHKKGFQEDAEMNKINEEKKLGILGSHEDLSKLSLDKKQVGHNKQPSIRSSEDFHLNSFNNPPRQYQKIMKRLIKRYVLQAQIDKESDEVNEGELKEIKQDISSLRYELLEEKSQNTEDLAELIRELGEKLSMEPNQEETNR

Structure (SMILES) | IC50 [1] | inhibition at 5 µM [2]
N#Cc1ccc(NC2(C(=O)N3CCN(c4ccc(C(F)(F)F)cc4)CC3)CCCC2)cc1 [Compound 1, 4-((1-(4-(4-(trifluoromethyl)phenyl)piperazine-1-carbonyl)cyclopentyl)amino)benzonitrile] | 0.04 µM | -60%
CC(C)(C)C1CCN(C(=O)C2(Nc3ccc(C#N)cc3)CCCC2)CC1 [Compound 31, 4-((1-(4-(tert-butyl)piperidine-1-carbonyl)cyclopentyl)amino)benzonitrile] | 0.087 µM | 26%
